In patent US4349546A, “D-Allose derivative and preparation method therefor” (Wakamoto Pharmaceutical Co., Ltd., priority 1980, dated 1982):

How the values were obtained:
[1] = tested on: leukemia L-1210, P 388, Lewis lung carcinoma, β-16 melanoma and mouse lung autotumor; experiment: Antitumor effect, overall statement of the patent; assay type: in vivo, warm-blooded animals; mice
Toxicity tests (LD50) = details: mouse, in vivo, DDY male mice
Procedure: CNUA dissolved in isotonic sodium chloride solution was given to DDY male mice each weighing 20 to 22.5 g by intraperitoneal administration, intravenous administration and peroral administration, and LD50 values were determined.

Leukemia P-388 cells = experiment: Antileukemia test, P-388 (Test Example 2); assay type: in vivo, CDF mice; details: for ILS (rate of apothanasia): 24 hours after implantation; for Number of survivals: 60 days
Procedure: (1) Test animals: The same animals as in Test 1.
(§1) 1×10^5 Leukemia P-388 cells per mouse were implanted into the abdomen of each mouse. After 24 hours, a given amount of CNUA dissolved in isotonic sodium chloride solution was administered to the mice. The rate of apothanasia (%) and number of survivals after 60 days were examined.

[2] = tested on: Peripheral leukocyte count; experiment: Effects on peripheral leukocyte count (Test Example 6); assay type: in vivo, DDY mice
From the text: Comparison of effects of CNUA and Me-CCNU* on peripheral leukocyte count:
Six-week old DDY mice each weighing 22±1 g; one group comprising 5 male mice.
CNUA and Me-CCNU were given intraperitoneally on the first day. The, blood was drawn from a tail vein at time intervals to determine the leukocyte count. The samples were used in the form of a solution in an isotonic sodium chloride solution.

β-16 melanoma cells = experiment: Test of therapeutical effects on melanoma (Test Example 4); assay type: in vivo, BDF mice; details: for Number of survivals: 60 days
Leukemia L-1210 cells = experiment: Antileukemia test, L-1210 (Test Example 1); assay type: in vivo, CDF mice; details: for Number of survivals: 60 days
Procedure: (1) Test animals: About 6-week old CDF mice each weighing 22±1 g; one group comprising 7 male mice.
as §1, with “L-1210” for “P-388”, “mice in through three different methods, i.e. intraperitoneal administration, intravenous administration and peroral administration.” for “mice.”, “apothanacia” for “apothanasia”
^a Symbols in the column of "Method of Administration" have the
ip: Intraperitoneal administration,
iv: Intravenous administration,
po: Peroral administration,
day 1: A given amount of CNUA was administered once 24 hours after the
day 1-3: Continuous administration once a day for three days subsequently
^b Rate of apothanasia % (ILS) was calculated according to the
^c Number of survivals means the number of mice which survived for 60
days or longer in the group consisting of the 7 mice tested.

[3] = tested on: Lewis lung carcinoma cells; experiment: Test of therapeutical effects on Lewis lung carcinoma (Test Example 3); assay type: in vivo, BDF mice; details: for Number of survivals: 60 days
From the text: (1) Test animals: About 6-week old BDF mice each weighing 22±1 g; one group comprising 7 male mice.
5×10^5 Lewis lung carcinoma cells per mouse were implanted under the skin of each mouse. […] The rate of apothanasia and number of survivals after 60 days were examined.
*"day 1-9" in the column of "Method of Administration" indicates
continuous administration once/day for 9 days subsequently to "day 1".

SMILES: O=NN(CCCl)C(=O)N[C@@H]1[C@H](O)[C@@H](CO)OC(O)[C@@H]1O (stereo partly drawn) [CNUA, 3-[3-(2-chloroethyl)-3-nitrosoureido]-3-deoxy-D-allose]
- antitumor effects [1]: powerful antitumor effects
- LD50 (Toxicity tests (LD50); ip): 65.5 mg/kg
- LD50 (Toxicity tests (LD50); iv): 80 mg/kg
- LD50 (Toxicity tests (LD50); po): 550 mg/kg
- ILS (rate of apothanasia) (Leukemia P-388 cells; 3.75 mg/kg/day): 50%
- ILS (rate of apothanasia) (Leukemia P-388 cells; 7.5 mg/kg/day): 90%
- ILS (rate of apothanasia) (Leukemia P-388 cells; 15 mg/kg/day): 240%
- ILS (rate of apothanasia) (Leukemia P-388 cells; 30 mg/kg/day): > 500%
- ILS (rate of apothanasia) (Leukemia P-388 cells; 45 mg/kg/day): > 500%
- ILS (rate of apothanasia) (Leukemia P-388 cells; 60 mg/kg/day): > 500%
- Number of survivals (Leukemia P-388 cells; 3.75 mg/kg/day): 0/7
- Number of survivals (Leukemia P-388 cells; 7.5 mg/kg/day): 0/7
- Number of survivals (Leukemia P-388 cells; 15 mg/kg/day): 3/7
- Number of survivals (Leukemia P-388 cells; 30 mg/kg/day): 5/7
- Number of survivals (Leukemia P-388 cells; 45 mg/kg/day): 7/7
- Number of survivals (Leukemia P-388 cells; 60 mg/kg/day): 6/7
- Peripheral leukocyte count after the administration ([2]; 30 mg/kg ip, 2 day): 84.0 % based on the control
- Peripheral leukocyte count after the administration ([2]; 30 mg/kg ip, 4 day): 82.2 % based on the control
- Peripheral leukocyte count after the administration ([2]; 30 mg/kg ip, 7 day): 85.6 % based on the control
- Peripheral leukocyte count after the administration ([2]; 30 mg/kg ip, 10 day): 84.7 % based on the control
- Peripheral leukocyte count after the administration ([2]; 30 mg/kg ip, 14 day): 159 % based on the control
- Peripheral leukocyte count after the administration ([2]; 60 mg/kg ip, 2 day): 78.2 % based on the control
- Peripheral leukocyte count after the administration ([2]; 60 mg/kg ip, 4 day): 60.0 % based on the control
- Peripheral leukocyte count after the administration ([2]; 60 mg/kg ip, 7 day): 64.5 % based on the control
- Peripheral leukocyte count after the administration ([2]; 60 mg/kg ip, 10 day): 80.0 % based on the control
- Peripheral leukocyte count after the administration ([2]; 60 mg/kg ip, 14 day): 100 % based on the control
- myelotoxicity ([2]; as compared with Me-CCNU): relatively low myelotoxicity
- ILS (rate of apothanasia) (β-16 melanoma cells; 1.12 mg/kg/day, day 1-9, ip): 10%
- ILS (rate of apothanasia) (β-16 melanoma cells; 2.23 mg/kg/day, day 1-9, ip): 25%
- ILS (rate of apothanasia) (β-16 melanoma cells; 4.45 mg/kg/day, day 1-9, ip): 30%
- ILS (rate of apothanasia) (β-16 melanoma cells; 5 mg/kg/day, day 1, ip): 0%
- ILS (rate of apothanasia) (β-16 melanoma cells; 6.67 mg/kg/day, day 1-9, ip): 35%
- ILS (rate of apothanasia) (β-16 melanoma cells; 10 mg/kg/day, day 1, ip): 16%
- ILS (rate of apothanasia) (β-16 melanoma cells; 20 mg/kg/day, day 1, ip): 48%
- ILS (rate of apothanasia) (β-16 melanoma cells; 20 mg/kg/day, day 1, iv): 65%
- ILS (rate of apothanasia) (β-16 melanoma cells; 40 mg/kg/day, day 1, ip): 60%
- ILS (rate of apothanasia) (β-16 melanoma cells; 40 mg/kg/day, day 1, iv): 155%
- ILS (rate of apothanasia) (β-16 melanoma cells; 60 mg/kg/day, day 1, iv): 35%
- Number of survivals (β-16 melanoma cells; 1.12 mg/kg/day, day 1-9, ip): 0/7
- Number of survivals (β-16 melanoma cells; 2.23 mg/kg/day, day 1-9, ip): 0/7
- Number of survivals (β-16 melanoma cells; 4.45 mg/kg/day, day 1-9, ip): 0/7
- Number of survivals (β-16 melanoma cells; 5 mg/kg/day, day 1, ip): 0/7
- Number of survivals (β-16 melanoma cells; 6.67 mg/kg/day, day 1-9, ip): 0/7
- Number of survivals (β-16 melanoma cells; 10 mg/kg/day, day 1, ip): 0/7
- Number of survivals (β-16 melanoma cells; 20 mg/kg/day, day 1, ip): 1/7
- Number of survivals (β-16 melanoma cells; 20 mg/kg/day, day 1, iv): 1/7
- Number of survivals (β-16 melanoma cells; 40 mg/kg/day, day 1, ip): 2/7
- Number of survivals (β-16 melanoma cells; 40 mg/kg/day, day 1, iv): 1/7
- Number of survivals (β-16 melanoma cells; 60 mg/kg/day, day 1, iv): 0/7
- ILS (rate of apothanasia) (Leukemia L-1210 cells; 5 mg/kg/day, iv, day 1): 29%
- ILS (rate of apothanasia) (Leukemia L-1210 cells; 10 mg/kg/day, iv, day 1): 43%
- ILS (rate of apothanasia) (Leukemia L-1210 cells; 11.3 mg/kg/day, ip, day 1): 86%
- ILS (rate of apothanasia) (Leukemia L-1210 cells; 11.3 mg/kg/day, ip, day 1-3): 143%
- ILS (rate of apothanasia) (Leukemia L-1210 cells; 20 mg/kg/day, iv, day 1): 86%
- ILS (rate of apothanasia) (Leukemia L-1210 cells; 22.5 mg/kg/day, ip, day 1): 157%
- ILS (rate of apothanasia) (Leukemia L-1210 cells; 22.5 mg/kg/day, ip, day 1-3): > 757%
- ILS (rate of apothanasia) (Leukemia L-1210 cells; 40 mg/kg/day, iv, day 1): > 757%
- ILS (rate of apothanasia) (Leukemia L-1210 cells; 45 mg/kg/day, ip, day 1): > 757%
- ILS (rate of apothanasia) (Leukemia L-1210 cells; 45 mg/kg/day, ip, day 1-3): > 757%
- ILS (rate of apothanasia) (Leukemia L-1210 cells; 50 mg/kg/day, iv, day 1): 400%
- ILS (rate of apothanasia) (Leukemia L-1210 cells; 60 mg/kg/day, ip, day 1): > 757%
- ILS (rate of apothanasia) (Leukemia L-1210 cells; 60 mg/kg/day, ip, day 1-3): > 757%
- ILS (rate of apothanasia) (Leukemia L-1210 cells; 100 mg/kg/day, po, day 1): 86%
- ILS (rate of apothanasia) (Leukemia L-1210 cells; 200 mg/kg/day, po, day 1): 100%
- ILS (rate of apothanasia) (Leukemia L-1210 cells; 300 mg/kg/day, po, day 1): 100%
- ILS (rate of apothanasia) (Leukemia L-1210 cells; 400 mg/kg/day, po, day 1): 57%
- Number of survivals (Leukemia L-1210 cells; 5 mg/kg/day, iv, day 1): 0/7
- Number of survivals (Leukemia L-1210 cells; 10 mg/kg/day, iv, day 1): 0/7
- Number of survivals (Leukemia L-1210 cells; 11.3 mg/kg/day, ip, day 1): 1/7
- Number of survivals (Leukemia L-1210 cells; 11.3 mg/kg/day, ip, day 1-3): 1/7
- Number of survivals (Leukemia L-1210 cells; 20 mg/kg/day, iv, day 1): 1/7
- Number of survivals (Leukemia L-1210 cells; 22.5 mg/kg/day, ip, day 1): 3/7
- Number of survivals (Leukemia L-1210 cells; 22.5 mg/kg/day, ip, day 1-3): 5/7
- Number of survivals (Leukemia L-1210 cells; 40 mg/kg/day, iv, day 1): 4/7
- Number of survivals (Leukemia L-1210 cells; 45 mg/kg/day, ip, day 1): 7/7
- Number of survivals (Leukemia L-1210 cells; 45 mg/kg/day, ip, day 1-3): 5/7
- Number of survivals (Leukemia L-1210 cells; 50 mg/kg/day, iv, day 1): 2/7
- Number of survivals (Leukemia L-1210 cells; 60 mg/kg/day, ip, day 1): 4/7
- Number of survivals (Leukemia L-1210 cells; 60 mg/kg/day, ip, day 1-3): 4/7
- Number of survivals (Leukemia L-1210 cells; 100 mg/kg/day, po, day 1): 0/7
- Number of survivals (Leukemia L-1210 cells; 200 mg/kg/day, po, day 1): 3/7
- Number of survivals (Leukemia L-1210 cells; 300 mg/kg/day, po, day 1): 2/7
- Number of survivals (Leukemia L-1210 cells; 400 mg/kg/day, po, day 1): 2/7
- ILS (rate of apothanasia) ([3]; 2.23 mg/kg/day, ip, day 1-9): 4%
- ILS (rate of apothanasia) ([3]; 4.45 mg/kg/day, ip, day 1-9): 21%
- ILS (rate of apothanasia) ([3]; 5 mg/kg/day, ip, day 1): 0%
- ILS (rate of apothanasia) ([3]; 6.67 mg/kg/day, ip, day 1-9): 29%
- ILS (rate of apothanasia) ([3]; 10 mg/kg/day, ip, day 1): 0%
- ILS (rate of apothanasia) ([3]; 15 mg/kg/day, iv, day 1): 35%
- ILS (rate of apothanasia) ([3]; 20 mg/kg/day, ip, day 1): 68%
- ILS (rate of apothanasia) ([3]; 30 mg/kg/day, iv, day 1): 80%
- ILS (rate of apothanasia) ([3]; 40 mg/kg/day, ip, day 1): > 172%
- ILS (rate of apothanasia) ([3]; 40 mg/kg/day, iv, day 1): > 200%
- ILS (rate of apothanasia) ([3]; 50 mg/kg/day, iv, day 1): > 200%
- Number of survivals ([3]; 2.23 mg/kg/day, ip, day 1-9): 0/7
- Number of survivals ([3]; 4.45 mg/kg/day, ip, day 1-9): 1/7
- Number of survivals ([3]; 5 mg/kg/day, ip, day 1): 0/7
- Number of survivals ([3]; 6.67 mg/kg/day, ip, day 1-9): 0/7
- Number of survivals ([3]; 10 mg/kg/day, ip, day 1): 0/7
- Number of survivals ([3]; 15 mg/kg/day, iv, day 1): 0/7
- Number of survivals ([3]; 20 mg/kg/day, ip, day 1): 2/7
- Number of survivals ([3]; 30 mg/kg/day, iv, day 1): 1/7
- Number of survivals ([3]; 40 mg/kg/day, ip, day 1): 6/7
- Number of survivals ([3]; 40 mg/kg/day, iv, day 1): 6/7
- Number of survivals ([3]; 50 mg/kg/day, iv, day 1): 5/7
